The values below come from patent US11731969B2, “Crystal polymorph of 8-bromo-2-(1-methylpiperidin-4-ylamino)-4-(4-phenoxyphenylamino)pyrido[4,3-d]pyrimidin-5(6H)-one hydrochloride and method for preparing same” (OSCOTEC INC., priority 2018, dated 2023).

Molecules are shown by their SMILES. Where a name gives a salt, the structure may show the parent alone.

Series [1] can be described thus: Evaluation of solubility in distilled water (HPLC). It counts as physicochemical. Particulars: for Solubility: distilled water, 20 mg/ml added, stirred 2 hours at room temperature (25° C.), filtered, HPLC, hydrochloride; for Solubility as compared with Compound 1 (in words): summary of Table 1. How it is done: Distilled water was added to 8-bromo-2-(1-methylpiperidin-4-ylamino)-4-(4-phenoxyphenylamino)pyrido[4,3-d]pyrimidin-5(6H)-one hydrochloride (Compound 1) represented by the above Formula 1 and the crystalline form (VI) and the crystalline form (X) obtained in the Examples such that the concentration was 20 mg/ml, which was stirred for 2 hours at room temperature (25° C.) and then filtered. Thereafter, it was diluted 200 times with acetonitrile of a concentration of 50%.

Series [2] is described as follows: Evaluation of hygroscopicity by dynamic moisture adsorption analyzer (DVS). The class given is physicochemical. Particulars: for Hygroscopicity (%): 25° C., DVS, hydrochloride. The procedure: 8-bromo-2-(1-methylpiperidin-4-ylamino)-4-(4-phenoxyphenylamino)pyrido[4,3-d]pyrimidin-5(6H)-one hydrochloride (Compound 1) represented by the above Formula 1 and the crystalline form (VI) obtained in the Examples were measured for hygroscopicity in a relative humidity range of 0% to 90% at 25° C. using a dynamic moisture adsorption analyzer (DVS).

In a further series the test system is protein kinase. Particulars: see Korean Laid-open Patent Publication No. 2014-0144709; cited from earlier work.

As for `CN1CCC(Nc2nc(Nc3ccc(Oc4ccccc4)cc3)c3c(=O)[nH]cc(Br)c3n2)CC1` [Compound 1, 8-bromo-2-(1-methylpiperidin-4-ylamino)-4-(4-phenoxyphenylamino)pyrido[4,3-d]pyrimidin-5(6H)-one hydrochloride], the Solubility in series [1] stood at 0.25 mg/mL. The “Hygroscopicity (%)” value in series [2] (relative humidity 0.0%) was found to be 0.001%; in series [2] (relative humidity 10.0%) it was 0.655%; in series [2] (relative humidity 20.0%), 1.202%; in series [2] (relative humidity 30.0%) it was 1.695%; in series [2] (relative humidity 40.0%) it was 2.081%; in series [2] (relative humidity 50.0%), 2.457%. Further, the “Hygroscopicity (%)” value in series [2] (relative humidity 60.0%) was 2.823%; in series [2] (relative humidity 70.0%), 3.215%; in series [2] (relative humidity 80.0%), 3.696%; in series [2] (relative humidity 90.0%), 4.584%. Further, the “Effect on the activity of protein kinase (in words)” value in the series on protein kinase was “has an effect of inhibiting the activity of protein kinase”.

`CN1CCC(Nc2nc(Nc3ccc(Oc4ccccc4)cc3)c3c(=O)[nH]cc(Br)c3n2)CC1` [Crystalline form (VI), 8-bromo-2-(1-methylpiperidin-4-ylamino)-4-(4-phenoxyphenylamino)pyrido[4,3-d]pyrimidin-5(6H)-one hydrochloride] returned a Solubility in series [1] of 19.1 mg/mL. For the same compound, the “Solubility as compared with Compound 1 (in words)” value in series [1] is on record as “improved solubility”. Besides, the “Hygroscopicity (%)” value stood at 0.004% in series [2] (relative humidity 0.0%); 0.707% in series [2] (relative humidity 10.0%); 0.948% in series [2] (relative humidity 20.0%); 1.132% in series [2] (relative humidity 30.0%); 1.280% in series [2] (relative humidity 40.0%); 1.419% in series [2] (relative humidity 50.0%). Further, the “Hygroscopicity (%)” value in series [2] (relative humidity 60.0%) was 1.561%; in series [2] (relative humidity 70.0%), 1.726%; in series [2] (relative humidity 80.0%) it was 1.973%; in series [2] (relative humidity 90.0%) it was 2.452%. In series [2] (summary of Table 2), the “Hygroscopicity as compared with Compound 1 (in words)” value is “improved hygroscopicity”.

For `CN1CCC(Nc2nc(Nc3ccc(Oc4ccccc4)cc3)c3c(=O)[nH]cc(Br)c3n2)CC1` [Crystalline form (X), 8-bromo-2-(1-methylpiperidin-4-ylamino)-4-(4-phenoxyphenylamino)pyrido[4,3-d]pyrimidin-5(6H)-one hydrochloride], in series [1], the Solubility was determined as 17.3 mg/mL and the “Solubility as compared with Compound 1 (in words)” value is “improved solubility”.
